Experimental data from PubChem BioAssay AID1259407 (Chemical Carcinogenesis Research Information System (CCRIS), 2018).
Activity calls are given as the source filed them. The rule behind the calls is not given here.

System: CCRIS mutagenicity, Ames/micronucleus/aberration tests
Experiment: CCRIS mutagenicity studies

Which results are given for Nc1ccc(Cl)cc1?
mutagenic call (End Point: IN VITRO MICRONUCLEUS, Test System: CHL/IU CELLS, Metabolic Activation: RAT, LIVER, S-9, PHENOBARBITAL AND 5,6-BENZOFLAVONE): inactive; negative; mutagenic call (Test System: AMES SALMONELLA TYPHIMURIUM, Strain/Indicator: TA97, Metabolic Activation: HAMSTER, LIVER, S-9, AROCLOR 1254, Method: PREINCUBATION): inactive; negative; mutagenic call (Test System: AMES SALMONELLA TYPHIMURIUM, Strain/Indicator: TA97, Metabolic Activation: NONE, Method: PREINCUBATION): inactive; negative; mutagenic call (Test System: AMES SALMONELLA TYPHIMURIUM, Strain/Indicator: TA97, Metabolic Activation: RAT, LIVER, S-9, AROCLOR 1254, Method: PREINCUBATION): inactive; negative; mutagenic call (Test System: AMES SALMONELLA TYPHIMURIUM, Strain/Indicator: TA98, Metabolic Activation: HAMSTER, LIVER, S-9 (10%), AROCLOR 1254, Method: PREINCUBATION): active; positive; mutagenic call (Test System: AMES SALMONELLA TYPHIMURIUM, Strain/Indicator: TA98, Metabolic Activation: HAMSTER, LIVER, S-9, AROCLOR 1254, Method: STANDARD PLATE): active; positive; mutagenic call (Test System: AMES SALMONELLA TYPHIMURIUM, Strain/Indicator: TA98, Metabolic Activation: NONE, Method: PREINCUBATION): inactive; negative; mutagenic call (Test System: AMES SALMONELLA TYPHIMURIUM, Strain/Indicator: TA98, Metabolic Activation: NONE, Method: SPOT TEST): inactive; negative; mutagenic call (Test System: AMES SALMONELLA TYPHIMURIUM, Strain/Indicator: TA98, Metabolic Activation: RAT, LIVER, S-9 (5%, 10% OR 30%), AROCLOR 1254, Method: PREINCUBATION): active; positive; mutagenic call (Test System: AMES SALMONELLA TYPHIMURIUM, Strain/Indicator: TA98, Metabolic Activation: RAT, LIVER, S-9, AROCLOR 1254, Method: SPOT TEST): inactive; negative; mutagenic call (Test System: AMES SALMONELLA TYPHIMURIUM, Strain/Indicator: TA98, Metabolic Activation: RAT, LIVER, S-9, SODIUM PHENOBARBITONE, Method: SPOT TEST): inactive; negative; mutagenic call (Test System: AMES SALMONELLA TYPHIMURIUM, Strain/Indicator: TA98, Metabolic Activation: RAT, LIVER, S-9, SODIUM PHENOBARBITONE, Method: STANDARD PLATE): inactive; negative; mutagenic call (Test System: AMES SALMONELLA TYPHIMURIUM, Strain/Indicator: TA100, Metabolic Activation: HAMSTER, LIVER, S-9 (5% OR 10%), AROCLOR 1254, Method: PREINCUBATION): inactive; negative; mutagenic call (Test System: AMES SALMONELLA TYPHIMURIUM, Strain/Indicator: TA100, Metabolic Activation: HAMSTER, LIVER, S-9, AROCLOR 1254, Method: PREINCUBATION): inactive; negative; mutagenic call (Test System: AMES SALMONELLA TYPHIMURIUM, Strain/Indicator: TA100, Metabolic Activation: HAMSTER, LIVER, S-9, AROCLOR 1254, Method: STANDARD PLATE): inactive; negative; mutagenic call (Test System: AMES SALMONELLA TYPHIMURIUM, Strain/Indicator: TA100, Metabolic Activation: NONE, Method: PREINCUBATION): inactive; negative; mutagenic call (Test System: AMES SALMONELLA TYPHIMURIUM, Strain/Indicator: TA100, Metabolic Activation: NONE, Method: SPOT TEST): inactive; negative; mutagenic call (Test System: AMES SALMONELLA TYPHIMURIUM, Strain/Indicator: TA100, Metabolic Activation: RAT, LIVER, S-9 (5% OR 10%), AROCLOR 1254, Method: PREINCUBATION): inactive; negative; mutagenic call (Test System: AMES SALMONELLA TYPHIMURIUM, Strain/Indicator: TA100, Metabolic Activation: RAT, LIVER, S-9 (30%), AROCLOR 1254, Method: PREINCUBATION): inactive; negative; mutagenic call (Test System: AMES SALMONELLA TYPHIMURIUM, Strain/Indicator: TA100, Metabolic Activation: RAT, LIVER, S-9, AROCLOR 1254, Method: PREINCUBATION): inactive; negative; mutagenic call (Test System: AMES SALMONELLA TYPHIMURIUM, Strain/Indicator: TA100, Metabolic Activation: RAT, LIVER, S-9, AROCLOR 1254, Method: SPOT TEST): inactive; negative; mutagenic call (Test System: AMES SALMONELLA TYPHIMURIUM, Strain/Indicator: TA100, Metabolic Activation: RAT, LIVER, S-9, AROCLOR 1254, Method: STANDARD PLATE): inactive; negative; mutagenic call (Test System: AMES SALMONELLA TYPHIMURIUM, Strain/Indicator: TA100, Metabolic Activation: RAT, LIVER, S-9, SODIUM PHENOBARBITONE, Method: SPOT TEST): inactive; negative; mutagenic call (Test System: AMES SALMONELLA TYPHIMURIUM, Strain/Indicator: TA100, Metabolic Activation: RAT, LIVER, S-9, SODIUM PHENOBARBITONE, Method: STANDARD PLATE): inactive; negative; mutagenic call (Test System: AMES SALMONELLA TYPHIMURIUM, Strain/Indicator: TA1535, Metabolic Activation: HAMSTER, LIVER, S-9, AROCLOR 1254, Method: PREINCUBATION): inactive; negative; mutagenic call (Test System: AMES SALMONELLA TYPHIMURIUM, Strain/Indicator: TA1535, Metabolic Activation: NONE, Method: PREINCUBATION): inactive; negative; mutagenic call (Test System: AMES SALMONELLA TYPHIMURIUM, Strain/Indicator: TA1535, Metabolic Activation: NONE, Method: SPOT TEST): inactive; negative; mutagenic call (Test System: AMES SALMONELLA TYPHIMURIUM, Strain/Indicator: TA1535, Metabolic Activation: NONE, Method: STANDARD PLATE): inactive; negative; mutagenic call (Test System: AMES SALMONELLA TYPHIMURIUM, Strain/Indicator: TA1535, Metabolic Activation: RAT, LIVER, S-9, AROCLOR 1254, Method: PREINCUBATION): inactive; negative; mutagenic call (Test System: AMES SALMONELLA TYPHIMURIUM, Strain/Indicator: TA1535, Metabolic Activation: RAT, LIVER, S-9, AROCLOR 1254, Method: SPOT TEST): inactive; negative; mutagenic call (Test System: AMES SALMONELLA TYPHIMURIUM, Strain/Indicator: TA1535, Metabolic Activation: RAT, LIVER, S-9, AROCLOR 1254, Method: STANDARD PLATE): inactive; negative; mutagenic call (Test System: AMES SALMONELLA TYPHIMURIUM, Strain/Indicator: TA1535, Metabolic Activation: RAT, LIVER, S-9, SODIUM PHENOBARBITONE, Method: SPOT TEST): inactive; negative; mutagenic call (Test System: AMES SALMONELLA TYPHIMURIUM, Strain/Indicator: TA1535, Metabolic Activation: RAT, LIVER, S-9, SODIUM PHENOBARBITONE, Method: STANDARD PLATE): inactive; negative; mutagenic call (Test System: AMES SALMONELLA TYPHIMURIUM, Strain/Indicator: TA1537, Metabolic Activation: HAMSTER, LIVER, S-9, AROCLOR 1254, Method: PREINCUBATION): inactive; negative; mutagenic call (Test System: AMES SALMONELLA TYPHIMURIUM, Strain/Indicator: TA1537, Metabolic Activation: NONE, Method: PREINCUBATION): inactive; negative; mutagenic call (Test System: AMES SALMONELLA TYPHIMURIUM, Strain/Indicator: TA1537, Metabolic Activation: NONE, Method: SPOT TEST): inactive; negative; mutagenic call (Test System: AMES SALMONELLA TYPHIMURIUM, Strain/Indicator: TA1537, Metabolic Activation: NONE, Method: STANDARD PLATE): inactive; negative; mutagenic call (Test System: AMES SALMONELLA TYPHIMURIUM, Strain/Indicator: TA1537, Metabolic Activation: RAT, LIVER, S-9, AROCLOR 1254, Method: PREINCUBATION): inactive; negative; mutagenic call (Test System: AMES SALMONELLA TYPHIMURIUM, Strain/Indicator: TA1537, Metabolic Activation: RAT, LIVER, S-9, AROCLOR 1254, Method: SPOT TEST): inactive; negative; mutagenic call (Test System: AMES SALMONELLA TYPHIMURIUM, Strain/Indicator: TA1537, Metabolic Activation: RAT, LIVER, S-9, AROCLOR 1254, Method: STANDARD PLATE): inactive; negative; mutagenic call (Test System: AMES SALMONELLA TYPHIMURIUM, Strain/Indicator: TA1537, Metabolic Activation: RAT, LIVER, S-9, SODIUM PHENOBARBITONE, Method: SPOT TEST): inactive; negative; mutagenic call (Test System: AMES SALMONELLA TYPHIMURIUM, Strain/Indicator: TA1537, Metabolic Activation: RAT, LIVER, S-9, SODIUM PHENOBARBITONE, Method: STANDARD PLATE): inactive; negative; mutagenic call (Test System: AMES SALMONELLA TYPHIMURIUM, Strain/Indicator: TA1538, Metabolic Activation: NONE, Method: SPOT TEST): inactive; negative; mutagenic call (Test System: AMES SALMONELLA TYPHIMURIUM, Strain/Indicator: TA1538, Metabolic Activation: NONE, Method: STANDARD PLATE): inactive; negative; mutagenic call (Test System: AMES SALMONELLA TYPHIMURIUM, Strain/Indicator: TA1538, Metabolic Activation: RAT, LIVER, S-9, AROCLOR 1254, Method: SPOT TEST): inactive; negative; mutagenic call (Test System: AMES SALMONELLA TYPHIMURIUM, Strain/Indicator: TA1538, Metabolic Activation: RAT, LIVER, S-9, AROCLOR 1254, Method: STANDARD PLATE): inactive; negative; mutagenic call (Test System: AMES SALMONELLA TYPHIMURIUM, Strain/Indicator: TA1538, Metabolic Activation: RAT, LIVER, S-9, SODIUM PHENOBARBITONE, Method: SPOT TEST): inactive; negative; mutagenic call (Test System: AMES SALMONELLA TYPHIMURIUM, Strain/Indicator: TA1538, Metabolic Activation: RAT, LIVER, S-9, SODIUM PHENOBARBITONE, Method: STANDARD PLATE): inactive; negative; mutagenic call (Test System: E. COLI, Strain/Indicator: WP2 UVRA(P), Metabolic Activation: NONE, Method: STANDARD PLATE): inactive; negative; mutagenic call (Test System: E. COLI, Strain/Indicator: WP2 UVRA, Metabolic Activation: NONE, Method: FLUCTUATION TEST): inactive; negative; mutagenic call (Test System: E. COLI, Strain/Indicator: WP2 UVRA, Metabolic Activation: NONE, Method: STANDARD PLATE): inactive; negative; mutagenic call (Test System: MOUSE LYMPHOMA, Strain/Indicator: L5178Y (TK+/TK-), Metabolic Activation: NONE, Method: SUSPENSION/PLATE): active; positive; mutagenic call (Test System: MOUSE LYMPHOMA, Strain/Indicator: L5178Y (TK+/TK-), Metabolic Activation: RAT, LIVER, S-9, AROCLOR 1254, Method: SUSPENSION/PLATE): active; positive; mutagenic call (Test System: Mouse lymphoma, Strain/Indicator: L5178Y (tk+/tk-), Metabolic Activation: None, Method: Suspension/plate): active; equivocal (previous evaluation positive); mutagenic call (Test System: Mouse lymphoma, Strain/Indicator: T5178Y (tk+/tk-), Metabolic Activation: Rat, Liver, S-9, Aroclor 1254, Method: Suspension/plate): active; inconclusive (previous evaluation positive)
